Experimental data published in patent publication US8952024B2, “Herbicidal pyrimidone derivatives” (E I du Pont de Nemours and Company, priority 2009, dated 2015).

Assays:
Experiment in all cases: Test B pre-/postemergence plant response
Assay type in all cases: in vivo
[1] = system: johnsongrass (Sorghum halepense)
How it was run: (§1)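 Response scores were assigned visually after 13 to 15 days in a greenhouse, comparing treated pots with controls on a 0–100 scale where 100 denotes complete control. Preemergence treatments went onto freshly seeded loam/sand soil; postemergence treatments onto plants 2 to 18 cm tall.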

[2] = system: velvetleaf (Abutilon theophrasti)
How it was run: as §1

soybean (Glycine max) = system: soybean (Glycine max)
How it was run: as §1

wild oat (Avena fatua) = system: wild oat (Avena fatua)
How it was run: as §1

[3] = system: morningglory (Ipomoea coccinea)
How it was run: as §1

[4] = system: blackgrass (Alopecurus myosuroides)
How it was run: as §1

[5] = system: yellow nutsedge (Cyperus esculentus)
How it was run: as §1

corn (Zea mays) = system: corn (Zea mays)
How it was run: as §1

[6] = system: green foxtail (Setaria viridis)
How it was run: as §1

[7] = system: lambsquarters (Chenopodium album)
How it was run: as §1

[8] = system: large crabgrass (Digitaria sanguinalis)
How it was run: as §1

[9] = system: downy bromegrass (Bromus tectorum)
How it was run: as §1

kochia (Kochia scoparia) = system: kochia (Kochia scoparia)
How it was run: as §1

[10] = system: Surinam grass (Brachiaria decumbens)
How it was run: as §1

[11] = system: pigweed (Amaranthus retroflexus)
How it was run: as §1

[12] = system: woolly cupgrass (Eriochloa villosa)
How it was run: as §1

[13] = system: goosegrass (Eleusine indica)
How it was run: as §1

[14] = 31 g ai/ha, postemergence, scale 0 to 100, 0 is no effect, 100 is complete control
[15] = 250 g ai/ha, Preemergence, 0 to 100 scale
[16] = Postemergence, 62 g ai/ha, scale 0 (no effect) to 100 (complete control), 13 to 15 days
[17] = Postemergence, 125 g ai/ha, visual rating after 13 to 15 days, scale 0 (no effect) to 100 (complete control)
[18] = Postemergence, 250 g ai/ha, scale 0 to 100 (0 no effect, 100 complete control)
[19] = Preemergence, 31 g ai/ha, scale 0 to 100 (0 no effect, 100 complete control)
[20] = Preemergence, 62 g ai/ha, scale 0 to 100, 0 no effect, 100 complete control
[21] = Preemergence, 125 g ai/ha, 0 to 100 scale
[22] = Postemergence, 31 g ai/ha, 0 to 100 scale (0 no effect, 100 complete control)
[23] = Postemergence, 125 g ai/ha, scale 0 to 100 (0 no effect, 100 complete control)
[24] = Postemergence, 250 g ai/ha, scale 0 to 100 (0 no effect, 100 complete control), 13 to 15 days
[25] = 62 g ai/ha, postemergence, 0 is no effect, 100 is complete control, 13 to 15 days

Compound: Cc1ccc(F)c(-n2c(-c3ccccc3)ncc(C(=O)C3=C(O)CCCC3=O)c2=O)c1 [Compound 51]
- Plant response rating, Johnsongrass [1, 14]: 75
- Plant response rating, Johnsongrass [1, 15]: 80
- Plant response rating, Johnsongrass [1, 16]: 75
- Plant response rating, Johnsongrass [1, 17]: 85
- Plant response rating, Johnsongrass [1, 18]: 98
- Plant response rating, Johnsongrass [1, 19]: 0
- Plant response rating, Johnsongrass [1, 20]: 5
- Johnsongrass plant response rating [1, 21]: 75
- Plant response rating, Velvetleaf [2, 14]: 80
- Plant response rating, Velvetleaf [2, 15]: 100
- Plant response rating, Velvetleaf [2, 16]: 85
- Plant response rating, Velvetleaf [2, 17]: 90
- Plant response rating, Velvetleaf [2, 18]: 95
- Plant response rating, Velvetleaf [2, 19]: 75
- Velvetleaf plant response rating [2, 21]: 98
- Plant response rating, Soybean (soybean (Glycine max); [14]): 85
- Plant response rating, Soybean (soybean (Glycine max); [15]): 85
- Plant response rating, Soybean (soybean (Glycine max); [16]): 90
- Plant response rating, Soybean (soybean (Glycine max); [17]): 95
- Plant response rating, Soybean (soybean (Glycine max); [18]): 95
- Plant response rating, Soybean (soybean (Glycine max); [19]): 0
- Soybean plant response rating (soybean (Glycine max); [21]): 80
- Plant response rating, Oat, Wild (wild oat (Avena fatua); [14]): 60
- Plant response rating, Oat, Wild (wild oat (Avena fatua); [15]): 0
- Plant response rating, Oat, Wild (wild oat (Avena fatua); [16]): 60
- Plant response rating, Oat, Wild (wild oat (Avena fatua); [17]): 60
- Plant response rating, Oat, Wild (wild oat (Avena fatua); [18]): 90
- Plant response rating, Oat, Wild (wild oat (Avena fatua); [19]): 0
- Oat, Wild plant response rating (wild oat (Avena fatua); [21]): 0
- Plant response rating, Morningglory [3, 14]: 75
- Plant response rating, Morningglory [3, 15]: 70
- Plant response rating, Morningglory [3, 16]: 80
- Plant response rating, Morningglory [3, 17]: 90
- Plant response rating, Morningglory [3, 18]: 100
- Plant response rating, Morningglory [3, 19]: 0
- Plant response rating, Morningglory [3, 20]: 20
- Morningglory plant response rating [3, 21]: 20
- Plant response rating, Blackgrass [4, 14]: 0
- Plant response rating, Blackgrass [4, 15]: 20
- Plant response rating, Blackgrass [4, 16]: 30
- Plant response rating, Blackgrass [4, 17]: 50
- Plant response rating, Blackgrass [4, 18]: 55
- Plant response rating, Blackgrass [4, 19]: 0
- Plant response rating, Blackgrass [4, 20]: 0
- Blackgrass plant response rating [4, 21]: 10
- Plant response rating, Nutsedge, Yellow [5, 14]: 60
- Plant response rating, Nutsedge, Yellow [5, 15]: 90
- Plant response rating, Nutsedge, Yellow [5, 16]: 65
- Plant response rating, Nutsedge, Yellow [5, 17]: 75
- Plant response rating, Nutsedge, Yellow [5, 18]: 80
- Plant response rating, Nutsedge, Yellow [5, 19]: 55
- Nutsedge, Yellow plant response rating [5, 21]: 85
- Plant response rating, Corn (corn (Zea mays); [14]): 75
- Plant response rating, Corn (corn (Zea mays); [15]): 0
- Plant response rating, Corn (corn (Zea mays); [16]): 80
- Plant response rating, Corn (corn (Zea mays); [17]): 80
- Plant response rating, Corn (corn (Zea mays); [18]): 85
- Plant response rating, Corn (corn (Zea mays); [19]): 0
- Plant response rating, Corn (corn (Zea mays); [20]): 0
- Corn plant response rating (corn (Zea mays); [21]): 0
- Plant response rating, Foxtail, Green [6, 14]: 85
- Plant response rating, Foxtail, Green [6, 15]: 100
- Plant response rating, Foxtail, Green [6, 16]: 95
- Plant response rating, Foxtail, Green [6, 17]: 95
- Plant response rating, Foxtail, Green [6, 18]: 100
- Plant response rating, Foxtail, Green [6, 19]: 50
- Plant response rating, Foxtail, Green [6, 20]: 50
- Foxtail, Green plant response rating [6, 21]: 98
- Plant response rating, Lambsquarters [7, 14]: 75
- Plant response rating, Lambsquarters [7, 15]: 98
- Plant response rating, Lambsquarters [7, 16]: 90
- Plant response rating, Lambsquarters [7, 17]: 95
- Plant response rating, Lambsquarters [7, 18]: 98
- Plant response rating, Lambsquarters [7, 19]: 95
- Plant response rating, Lambsquarters [7, 20]: 98
- Lambsquarters plant response rating [7, 21]: 98
- Plant response rating, Crabgrass, Large [8, 14]: 80
- Plant response rating, Crabgrass, Large [8, 15]: 100
- Plant response rating, Crabgrass, Large [8, 16]: 85
- Plant response rating, Crabgrass, Large [8, 17]: 85
- Plant response rating, Crabgrass, Large [8, 18]: 90
- Plant response rating, Crabgrass, Large [8, 19]: 75
- Plant response rating, Crabgrass, Large [8, 20]: 98
- Crabgrass, Large plant response rating [8, 21]: 100
- Plant response rating, Bromegrass, Downy [9, 14]: 50
- Plant response rating, Bromegrass, Downy [9, 15]: 40
- Plant response rating, Bromegrass, Downy [9, 16]: 50
- Plant response rating, Bromegrass, Downy [9, 17]: 55
- Plant response rating, Bromegrass, Downy [9, 18]: 60
- Plant response rating, Bromegrass, Downy [9, 19]: 0
- Plant response rating, Bromegrass, Downy [9, 20]: 0
- Bromegrass, Downy plant response rating [9, 21]: 5
- Plant response rating, Kochia (kochia (Kochia scoparia); [14]): 20
- Plant response rating, Kochia (kochia (Kochia scoparia); [16]): 20
- Plant response rating, Kochia (kochia (Kochia scoparia); [17]): 25
- Plant response rating, Kochia (kochia (Kochia scoparia); [18]): 35
- Plant response rating, Surinam Grass [10, 14]: 80
- Plant response rating, Surinam Grass [10, 15]: 100
- Plant response rating, Surinam Grass [10, 16]: 85
- Plant response rating, Surinam Grass [10, 17]: 90
- Plant response rating, Surinam Grass [10, 18]: 90
- Plant response rating, Surinam Grass [10, 19]: 95
- Surinam Grass plant response rating [10, 21]: 98
- Plant response rating, Pigweed [11, 14]: 85
- Plant response rating, Pigweed [11, 15]: 100
- Plant response rating, Pigweed [11, 16]: 95
- Plant response rating, Pigweed [11, 17]: 98
- Plant response rating, Pigweed [11, 18]: 100
- Plant response rating, Pigweed [11, 19]: 100
- Pigweed plant response rating [11, 21]: 100
- Plant response rating, Cupgrass, Woolly [12, 14]: 75
- Plant response rating, Cupgrass, Woolly [12, 15]: 85
- Plant response rating, Cupgrass, Woolly [12, 16]: 75
- Plant response rating, Cupgrass, Woolly [12, 17]: 80
- Plant response rating, Cupgrass, Woolly [12, 18]: 90
- Plant response rating, Cupgrass, Woolly [12, 19]: 10
- Plant response rating, Cupgrass, Woolly [12, 20]: 35
- Cupgrass, Woolly plant response rating [12, 21]: 75
- Plant response rating, Goosegrass [13, 14]: 75
- Plant response rating, Goosegrass [13, 15]: 100
- Plant response rating, Goosegrass [13, 16]: 80
- Plant response rating, Goosegrass [13, 17]: 85
- Plant response rating, Goosegrass [13, 18]: 85
- Plant response rating, Goosegrass [13, 19]: 98
- Goosegrass plant response rating [13, 21]: 100

Compound: Cc1ccc(-n2c(-c3cc(F)cc(F)c3)ncc(C(=O)C3=C(O)CCCC3=O)c2=O)cc1 [Compound 162]
- Plant response rating, Johnsongrass [1, 22]: 98
- Plant response rating, Johnsongrass [1, 23]: 100
- Plant response rating, Johnsongrass [1, 24]: 100
- Plant response rating, Velvetleaf [2, 22]: 80
- Plant response rating, Velvetleaf [2, 23]: 95
- Plant response rating, Velvetleaf [2, 24]: 100
- Plant response rating, Soybean (soybean (Glycine max); [22]): 98
- Plant response rating, Soybean (soybean (Glycine max); [23]): 100
- Plant response rating, Soybean (soybean (Glycine max); [24]): 100
- Plant response rating, Oat, Wild (wild oat (Avena fatua); [22]): 35
- Plant response rating, Oat, Wild (wild oat (Avena fatua); [23]): 45
- Plant response rating, Oat, Wild (wild oat (Avena fatua); [24]): 55
- Plant response rating, Morningglory [3, 22]: 75
- Plant response rating, Morningglory [3, 23]: 90
- Plant response rating, Morningglory [3, 24]: 100
- Blackgrass plant response rating (0 to 100 scale) [4, 25]: 40
- Plant response rating, Blackgrass [4, 22]: 30
- Plant response rating, Blackgrass [4, 23]: 55
- Plant response rating, Blackgrass [4, 24]: 65
- Plant response rating, Nutsedge, Yellow [5, 22]: 25
- Plant response rating, Nutsedge, Yellow [5, 23]: 75
- Plant response rating, Nutsedge, Yellow [5, 24]: 80
- Plant response rating, Corn (corn (Zea mays); [22]): 50
- Plant response rating, Corn (corn (Zea mays); [23]): 80
- Plant response rating, Corn (corn (Zea mays); [24]): 85
- Plant response rating, Foxtail, Green [6, 22]: 98
- Plant response rating, Foxtail, Green [6, 23]: 98
- Plant response rating, Foxtail, Green [6, 24]: 100
- Plant response rating, Lambsquarters [7, 22]: 80
- Plant response rating, Lambsquarters [7, 23]: 98
- Plant response rating, Lambsquarters [7, 24]: 100
- Plant response rating, Crabgrass, Large [8, 22]: 80
- Plant response rating, Crabgrass, Large [8, 23]: 98
- Plant response rating, Crabgrass, Large [8, 24]: 98
- Bromegrass, Downy plant response rating (0 to 100 scale) [9, 25]: 30
- Plant response rating, Bromegrass, Downy [9, 22]: 20
- Plant response rating, Bromegrass, Downy [9, 23]: 45
- Plant response rating, Bromegrass, Downy [9, 24]: 50
- Plant response rating, Kochia (kochia (Kochia scoparia); [22]): 20
- Plant response rating, Kochia (kochia (Kochia scoparia); [23]): 75
- Plant response rating, Kochia (kochia (Kochia scoparia); [24]): 80
- Plant response rating, Surinam Grass [10, 22]: 65
- Plant response rating, Surinam Grass [10, 23]: 75
- Plant response rating, Surinam Grass [10, 24]: 85
- Plant response rating, Pigweed [11, 22]: 100
- Plant response rating, Pigweed [11, 23]: 100
- Plant response rating, Pigweed [11, 24]: 100
- Plant response rating, Cupgrass, Woolly [12, 22]: 90
- Plant response rating, Cupgrass, Woolly [12, 23]: 100
- Plant response rating, Cupgrass, Woolly [12, 24]: 100
- Plant response rating, Goosegrass [13, 22]: 60
- Plant response rating, Goosegrass [13, 23]: 90
- Plant response rating, Goosegrass [13, 24]: 98
